In paper PMC8874615 (Viruses, 2022):
Values after ≈ are worked out from the molar mass of the structure shown. Like-named read-outs stand apart in the source and are kept apart here.

What was measured:
[1] = Cytotoxicity assay (Cell Counting Kit-8) in UKF-NB-4 cells; conditions: human, UKF-NB-4 neuroblastoma cells
[2] = tested on: TBEV, strain Hypr; assay: microbe, parasite or virus in culture; conditions: Tick-borne encephalitis virus, Vero
[3] = Cytotoxicity assay (Cell Counting Kit-8) in Vero cells; conditions: African green monkey
[4] = Cytotoxicity assay (Cell Counting Kit-8) in Huh-7 cells; conditions: human, Huh-7 hepatocarcinoma cells
[5] = Cytotoxicity assay (Cell Counting Kit-8) in HBCA cells; conditions: human, human brain cortical astrocytes (HBCA)
[6] = Cytotoxicity assay (Cell Counting Kit-8) in PS cells; conditions: pig, porcine kidney stable (PS) cells
[7] = tested on: TBEV, strain Hypr
[8] = Light sensitivity of the prepared sample; format: physicochemical; conditions: solid sample; surface coloration, detrimental to antivirus activities
[9] = Cytotoxicity assay (Cell Counting Kit-8) in BHK-21 cells; conditions: hamster, BHK-21 cells (baby hamster kidney)
[10] = tested on: RABV, strain CVS-11; assay: microbe, parasite or virus in culture; conditions: Lyssavirus rabies, BHK-21, 72 h
[11] = tested on: HSV-1 strain MacIntyre; assay: Mechanistic plaque number assay, HSV-1 in Vero cells; format: cell-based, herpes simplex virus type 1; conditions: diphyllin 1 100 µM, bafilomycin A1 100 nM
[12] = tested on: WNV, strain Eg-101
[13] = tested on: RVFV, strain H13/96; assay: microbe, parasite or virus in culture; conditions: Rift Valley fever virus, Vero
[14] = tested on: HSV-1, strain MacIntyre; assay: microbe, parasite or virus in culture; conditions: Human alphaherpesvirus 1, Vero
[15] = tested on: RABV, strain CVS-11
[16] = tested on: human lung carcinoma cells (A549); conditions: cited from earlier work
[17] = tested on: HSV-1, strain MacIntyre
[18] = tested on: ZIKV, strain Paraiba_01; assay: microbe, parasite or virus in culture; conditions: Zika virus, Vero
[19] = tested on: ZIKV strain Paraiba_01; assay: Mechanistic plaque number assay, ZIKV in Vero cells; format: cell-based, Zika virus; conditions: diphyllin 1 100 µM, bafilomycin A1 100 nM
[20] = tested on: ZIKV, strain Paraiba_01
[21] = tested on: RVFV, strain H13/96
[22] = tested on: endosomal acidification in Vero cells; assay: Analysis of endosomal acidification with acridine orange; format: cell-based, African Green Monkey; conditions: 20 min
[23] = tested on: rabbit lung cells (RL-33); conditions: RL-33 cells; cited from earlier work
[24] = tested on: Mardin-Darby canine kidney cells (MDCK); conditions: cited from earlier work
[25] = tested on: WNV, strain Eg-101; assay: microbe, parasite or virus in culture; conditions: West Nile virus, Vero
[26] = tested on: feline macrophage-like cells (fcwf-4); conditions: fcwf-4 cells; cited from earlier work
[27] = 3 h p.i. treatment then washing, plaques counted at 72 h
[28] = compound kept for the whole 72 h p.i.
[29] = 3 h p.i. treatment then washing, plaques counted at 120 h
[30] = compound kept for the whole 120 h p.i.

Compound | CC50 at 48 h [1] | EC50 [2] | CC50 at 48 h [3] | CC50 at 72 h [3] | CC50 at 144 h [3] | CC50 at 48 h [4] | CC50 at 48 h [5] | CC50 at 48 h [6] | SI (CC50/EC50) [7] | susceptibility of HSV-1 (plaque number) [11, 27] | susceptibility of HSV-1 (plaque number) [11, 28] | susceptibility of ZIKV (plaque number) [19, 29] | susceptibility of ZIKV (plaque number) [19, 30] | further results
COc1cc2c(O[C@@H]3O[C@H](CO)[C@@H](O)[C@H](O)[C@H]3O)c3c(c(-c4ccc5c(c4)OCO5)c2cc1OC)C(=O)OC3 [Cleistanthin B 8, diphyllin-4-β-D-glucopyranoside, reference compound] | 6.17 µM | 5530 nM | > 100 µM | > 100 µM | 80.7 µM | 3960 nM | 2080 nM | 78.9 µM | >18.08 | – | – | – | – | –
COc1cc2c(O)c3c(c(-c4ccc5c(c4)OCO5)c2cc1OC)C(=O)OC3 [commercial product, diphyllin] | – | – | – | – | – | – | – | – | – | – | – | – | – | EC50 [7]: 1240 nM
COc1cc2c(O)c3c(c(-c4ccc5c(c4)OCO5)c2cc1OC)C(=O)OC3 [Diphyllin 1, 9-(3‣,4‣-methylenedioxyphenyl)-4-hydroxy-6,7-dimethoxynaphtho[2,3-c]furan-1(3H)-one] | 11.1 µM | 850 nM | > 100 µM | > 100 µM | 18.2 µM | 1890 nM | 3390 nM | 92.4 µM | >117.64 | not susceptible | highly susceptible | susceptible | susceptible | light sensitivity [8]: rather light-sensitive; CC50 at 72 h [9]: > 100 µM; EC50 ([2]; 48 h): 1040 nM; EC50 [10]: 6.33 µM; SI (CC50/EC50) [12]: >128.20; EC50 [13]: 460 nM; EC50 [14]: 590 nM; SI (CC50/EC50) [15]: >15.80; drop in RABV RNA copies/µL compared with RABV-infected control cells [15]: 10^2; CC50 [16]: 24 µM; SI (CC50/EC50) [17]: >169.49; concentration at which complete HSV-1 suppression starts [17]: ≥ 2.5 µM; EC50 [18]: 540 nM; SI (CC50/EC50) [20]: >185.19; SI (CC50/EC50) [21]: >217.39; red fluorescence intensity of acidic endosomes (acridine orange) ([22]; 100 µM, versus DMSO control): much reduced; CC50 [23]: 63 µg/mL (≈ 166 µM); CC50 [24]: 3.48 µM; EC50 [25]: 780 nM; CC50 [26]: 5.99 µM
CO/C1=C\C(C)=C\[C@@H](C)[C@@H](O)[C@@H](C)C/C(C)=C/C=C/[C@H](OC)[C@@H]([C@@H](C)[C@@H](O)[C@H](C)[C@@]2(O)C[C@@H](O)[C@H](C)[C@@H](C(C)C)O2)OC1=O [bafilomycin A1, reference compound] | – | – | – | – | – | – | – | – | – | not susceptible | not susceptible | susceptible | susceptible | viability at 48 h, 0.15 µM [3]: ~80%; EC50 ([14]; 48 h): > 100 nM; effect on HSV-1 virus titers [17]: no effect; EC50 ([18]; 48 h): 2.44 nM; red fluorescence intensity of acidic endosomes (acridine orange) ([22]; 100 nM, positive control): all the more obvious
